Measured values taken from article PMC10786919, “Design-rules for stapled peptides with in vivo activity and their application to Mdm2/X antagonists” (Nature Communications, 2024).
Values after ≈ are worked out from the molar mass of the structure shown. Read-outs that look alike come from different tables or passages of the source. Positions of bridges follow the written chain, without caps; N, C: chain ends. Non-standard residues stand in square brackets, D forms with d. Residues, ends and D or L forms follow the SMILES beside them. Lys(N3) = [N-]=[N+]=NCCCC[C@H](N)C(=O)O; R8 = C=CCCCCCC[C@@](C)(N)C(=O)O; Cba = N[C@@H](CC1CCC1)C(=O)O; S5 = C=CCCC[C@](C)(N)C(=O)O; βAla = NCCC(=O)O

Legend:
[1] = tested on: panel of cancer cell lines, p53 WT or p53 deficient (null, mutant, HPV infected); type: cell-based; settings: p53 WT vs p53 null/mutant/HPV
Source text: Amongst the cell lines used, the following lines are amongst those listed as frequently misidentified by the International Cell Line Authentication Committee: HeLa, A549, HepG2, MCF-7,LoVo, SW48,.AsPC-1,HL-60, and MIA PaCa-2. These latter lines were used in order to employ a variety of lines represented diverse cancer types and that represented different p53 status (wild-type, mutant, null, and HPV infected). Imporantly, assay ready cells were used for these experiments and PCR analysis of target short tandem repeat (STR) markers was used to authenticate cell lines prior to cell banking. Cell viabilities were determined using the CellTiter-Glo® assay kit (Promega G7558). […] Assay plates were incubated at 37 °C, 5% CO2 overnight to allow cell attachment. Following day, compounds were dispensed into the assay plate using the Tecan HPD300 system and incubated at 37 °C, 5% CO2 for 120 h. At 120 h post dose, CellTiter-Glo assay was performed according to the manufacturer’s protocol. […] Staurosporine (Selleckchem S1421) was used as a positive control for the assay.

physchem [2] = assay: physchem
[3] = Lactate dehydrogenase (LDH) release assay; type: cell-based
Method in brief: (§1)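 LDH release, fluorometric membrane-integrity read-out; HCT116 with stable p53-responsive β-lactamase reporter; 8000 cells/well; 0.5% DMSO final; geometric mean, n≥3 biological replicates.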

HCT116 cells = assay: Lactate dehydrogenase (LDH) release assay; type: cell-based
Method in brief: as §1

[4] = Nanoclick permeability assay
Method in brief: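 Azido-peptide permeability was read as loss of NanoBRET signal (donor 450 nm, acceptor 610 nm) after adding NanoBret618-azide at 10 μM final.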

[5] = Experimental LogD (partition coefficient)
[6] = Solubility assay (kinetic solubility, PBS pH 7); type: physicochemical; settings: for solubility kinetic: pH 7, aqueous buffer, kinetic from dmso stock, read-out: Solubility
Method in brief: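 Next, measure peak areas of sample and standard. Finally, multiply their ratio by the standard concentration to obtain solubility (µM).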

[7] = tested on: CellSensor p53RE-bla HCT-116 Cell Line; settings: 72 h
Method in brief: (§2)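 Compound dilution series (10 points, 3-fold, 10 mM top stock in DMSO) tested on overnight-plated Ca Ski cells in RPMI1640/10% FBS and on blasticidin-selected p53RE-bla HCT-116 cells in McCoy's 5A; read-out was CellTiter-Glo 2.0 luminescence after room-temperature equilibration.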

Ca Ski cell line = settings: 72 h
Method in brief: as §2

in vitro = settings: human, HCT116 whole cell homogenates
EPSA = type: physicochemical; settings: EPSA
[8] = Fig S4
human Mdm2 1–125 = molecular target: T1, human Mdm2 1–125 (Homo sapiens, UniProt Q00987); assay: Mdm2 binding by competitive fluorescence anisotropy assay (FP binding); settings: read-out: FP binding assay KD
T1 construct: GST (N); His6 (internal); TEV cleavage site (ENLYFQG) (internal); made in house; host or cells: BL21 (DE3) Rosetta T1R Escherichia coli
T1 sequence (Q00987 with tags, fused parts or gaps): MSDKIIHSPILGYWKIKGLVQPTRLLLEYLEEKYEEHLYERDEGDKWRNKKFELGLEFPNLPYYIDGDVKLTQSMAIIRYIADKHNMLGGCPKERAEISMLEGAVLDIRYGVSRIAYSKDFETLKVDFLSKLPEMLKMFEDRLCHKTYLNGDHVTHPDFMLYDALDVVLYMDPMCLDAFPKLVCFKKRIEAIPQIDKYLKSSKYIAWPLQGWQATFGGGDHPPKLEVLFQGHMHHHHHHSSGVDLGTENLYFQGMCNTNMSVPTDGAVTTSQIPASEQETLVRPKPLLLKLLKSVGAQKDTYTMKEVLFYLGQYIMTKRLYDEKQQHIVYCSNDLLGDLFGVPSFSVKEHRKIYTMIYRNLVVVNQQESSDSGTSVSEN

[9] = tested on: p53 responsive β-lactamase reporter in HCT116 cells; assay: cells; type: cell-based; settings: read-out: p53 reporter assay EC50
Method in brief: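 Read-out used the ToxBLAzer Dual Screen for β-lactamase driven by a stably integrated p53-responsive reporter. Assay: 8000 HCT116 cells per well at 0.5% final DMSO. Reported numbers are geometric means over a minimum of three biological replicates.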

physchem [10] = assay: physchem; remark: listed apart in the source
[11] = tested on: Jump-In T-REx CHO-K1 BLA cells; assay: cells; type: cell-based; settings: for EC50: read-out: TETCHO: Counterscreen EC50
[12] = Nanoclick permeability assay EC50

**Q.** With `CC1CCC(Cn2c(N3CCO[C@@H]4CCC[C@H]43)nc3cc(-c4noc(=O)[nH]4)nc(-c4cncc(Cl)c4)c32)CC1` (stereo partly drawn) [MK-4688, reference compound] as the compound, how does the “off-target proliferation effects in p53 deficient control lines” value [1] read?
**A.** significant off-target toxicities

**Q.** Which results are given for `CC(=O)N[C@@H](CCCCN=[N+]=[N-])C(=O)NCCC(=O)N[C@H]1CCCCNC(=O)CC[C@@H]2NC(=O)[C@@](C)(CCCCCCC=CCCC[C@@](C)(C(=O)N[C@@H](CO)C(=O)N[C@@H](C)C(=O)N[C@@H](C)C(N)=O)NC(=O)[C@H](CC3CCC3)NC(=O)[C@H](CCC(N)=O)NC(=O)[C@H](C)NC(=O)[C@H](Cc3c[nH]c4ccccc34)NC(=O)[C@H](Cc3ccc(O)cc3)NC2=O)NC(=O)[C@H](Cc2ccccc2)NC(=O)[C@H]([C@@H](C)O)NC1=O` [MP-002]?
**A.** EPSA (physchem [2]): 182 A^2; EC50 ([3]; 0% FBS 4Hr, read-out: LDH: Cytotoxicity assay: EC50): > 50.7 µM; EC50 ([3]; 0% FBS 16Hr, read-out: LDH: Cytotoxicity assay: EC50): > 50.7 µM; EC50 ([3]; 10% FBS 4Hr, read-out: LDH: Cytotoxicity assay: EC50): > 50.7 µM; EC50 ([3]; 10% FBS 16Hr, read-out: LDH: Cytotoxicity assay: EC50): > 50.7 µM; LDH: Cytotoxicity assay: % Effect (HCT116 cells; 0% FBS 4Hr): -7.169%; LDH: Cytotoxicity assay: % Effect (HCT116 cells; 0% FBS 16Hr): 0.3781%; LDH: Cytotoxicity assay: % Effect (HCT116 cells; 10% FBS 4Hr): -6.533%; LDH: Cytotoxicity assay: % Effect (HCT116 cells; 10% FBS 16Hr): -11.6%; cell entry EC50 [4]: 0.462 µM; Partition Coeff LogD [5]: Poorly Behaved; off-target proliferation effects in p53 deficient control lines [1]: remarkably devoid of off-target toxicity; Solubility [6]: poor behavior; Solubility ([6]; pH 7, PBS): Poorly Behaved

**Q.** Which EC50 ([3]; LDH: Cytotoxicity assay: EC50) does the source give for `CC(=O)N[C@@H](CCCCN=[N+]=[N-])C(=O)NCCC(=O)N[C@@H](CC(C)C)C(=O)N[C@H](C(=O)N[C@@H](Cc1ccccc1)C(=O)N[C@]1(C)CCCCCCC=CCCC[C@@](C)(C(=O)N[C@@H](C)C(=O)N[C@@H](C)C(=O)N[C@@H](C)C(=O)N[C@@H](C)C(=O)N[C@@H](C)C(=O)N[C@@H](C)C(N)=O)NC(=O)[C@H](CC2CCC2)NC(=O)[C@H](CCC(N)=O)NC(=O)[C@H](C)NC(=O)[C@H](Cc2c[nH]c3ccccc23)NC(=O)[C@H](Cc2ccc(O)cc2)NC(=O)[C@H](CCC(=O)O)NC1=O)[C@@H](C)O` [MP-032] (Ac-[Lys(N3)][βAla]LTF[R8]EYWAQ[Cba][S5]AAAAAA-NH2; staple 6-13) here?
**A.** > 50.7 µM

**Q.** And the cell entry EC50 [4, 12]?
**A.** 0.708 µM

**Q.** And the “Partition Coeff LogD” value [5]?
**A.** Poorly Behaved

**Q.** What about the EC50 [7] of the same compound?
**A.** 0.96 µM

**Q.** What about the EC50 (Ca Ski cell line) of the same compound?
**A.** 26.6 µM

**Q.** What about the half-life at 1 μM (in vitro) of the same compound?
**A.** 0.5 h

**Q.** What about the EPSA (EPSA) of the same compound?
**A.** 194 A^2

**Q.** What about the Solubility [6] of the same compound?
**A.** P.B.

**Q.** And the Solubility ([6]; pH 7, PBS)?
**A.** Poorly Behaved

**Q.** For `CC(=O)N[C@@H](CCCCN=[N+]=[N-])C(=O)NCCC(=O)N[C@@H](CC(C)C)C(=O)N[C@H](C(=O)N[C@@H](Cc1ccccc1)C(=O)N[C@]1(C)CCCCCCC=CCCC[C@@](C)(C(=O)N[C@@H](C)C(=O)N[C@@H](C)C(=O)N[C@@H](C)C(=O)N[C@@H](C)C(=O)N[C@@H](C)C(=O)N[C@H](C)C(N)=O)NC(=O)[C@H](CC2CCC2)NC(=O)[C@H](CCC(N)=O)NC(=O)[C@H](C)NC(=O)[C@H](Cc2c[nH]c3ccccc23)NC(=O)[C@H](Cc2ccc(O)cc2)NC(=O)[C@H](CCC(=O)O)NC1=O)[C@@H](C)O` [MP-464] (Ac-[Lys(N3)][βAla]LTF[R8]EYWAQ[Cba][S5]AAAAA[dA]-NH2; staple 6-13), which EC50 ([3]; LDH: Cytotoxicity assay: EC50) is on record?
**A.** > 50.7 µM

**Q.** And the cell entry EC50 [4, 12]?
**A.** 4.19 µM

**Q.** And the “stability in serum plasma” value [8]?
**A.** highly stable

**Q.** What about the EC50 [7] of the same compound?
**A.** 0.42 µM

**Q.** What about the EC50 (Ca Ski cell line) of the same compound?
**A.** > 49.8 µM

**Q.** What about the half-life at 1 μM (in vitro) of the same compound?
**A.** 1.53 h

**Q.** And the EPSA (EPSA)?
**A.** 194 A^2

**Q.** What about the solubility kinetic ([6]; pH 7, PBS) of the same compound?
**A.** 157 µM (≈ 340 µg/mL)

**Q.** With `CC(=O)N[C@@H](CO)C(=O)NCC(=O)N[C@@H](CO)C(=O)N[C@H](C(=O)N[C@@H](CO)C(=O)N[C@@H](Cc1ccccc1)C(=O)N[C@]1(C)CCCCCCC=CCCC[C@@](C)(C(N)=O)NC(=O)[C@H](CC(C)C)NC(=O)[C@H](CC(C)C)NC(=O)[C@H](C)NC(=O)[C@H](Cc2c[nH]c3ccccc23)NC(=O)[C@H](Cc2ccc(O)cc2)NC(=O)[C@H](CCC(=O)O)NC1=O)[C@@H](C)O` [MP-654] as the compound, how does the EC50 ([3]; LDH: Cytotoxicity assay EC50) read?
**A.** > 50 µM

**Q.** And the Kd (human Mdm2 1–125)?
**A.** 0.00586 µM

**Q.** What about the EC50 ([9]; 0% FBS 4Hr) of the same compound?
**A.** 10.2 µM

**Q.** What about the EC50 ([9]; 0% FBS 16Hr) of the same compound?
**A.** 13.8 µM

**Q.** And the logD ([5]; not stated, Partition Coeff LogD)?
**A.** 2.3

**Q.** And the EPSA (physchem [10])?
**A.** 217 A^2

**Q.** And the solubility kinetic ([6]; pH 7, PBS)?
**A.** 23 µM (≈ 39 µg/mL)

**Q.** And the “TETCHO: Counterscreen % Effect” value ([11]; 0% FBS 4Hr)?
**A.** 1.563%

**Q.** And the EC50 ([11]; 0% FBS 4Hr)?
**A.** > 50.6 µM

**Q.** And the “TETCHO: Counterscreen % Effect” value ([11]; 0% FBS 16Hr)?
**A.** 3.969%

**Q.** And the EC50 ([11]; 0% FBS 16Hr)?
**A.** > 50 µM

**Q.** Which EC50 ([3]; LDH: Cytotoxicity assay EC50) does the source give for `CC(=O)N[C@@H](CCCCN=[N+]=[N-])C(=O)N[C@H](C(=O)N[C@@H](CO)C(=O)N[C@@H](Cc1ccccc1)C(=O)N[C@]1(C)CCCCCCC=CCCC[C@@](C)(C(=O)N[C@@H](CO)C(=O)N[C@@H](C)C(=O)N[C@@H](C)C(N)=O)NC(=O)[C@H](CC2CCC2)NC(=O)[C@H](CCC(N)=O)NC(=O)[C@H](C)NC(=O)[C@H](Cc2c[nH]c3ccccc23)NC(=O)[C@H](Cc2ccc(O)cc2)NC(=O)[C@H](C)NC1=O)[C@@H](C)O` [MP-703] (Ac-[Lys(N3)]TSF[R8]AYWAQ[Cba][S5]SAA-NH2; staple 5-12) here?
**A.** > 50 µM

**Q.** And the EC50 ([9]; 0% FBS 4Hr)?
**A.** 0.302 µM

**Q.** What about the EC50 ([9]; 0% FBS 16Hr) of the same compound?
**A.** 0.87 µM

**Q.** And the “Partition Coeff LogD” value [5]?
**A.** Poorly Behaved

**Q.** What about the EPSA (physchem [10]) of the same compound?
**A.** 178 A^2

**Q.** And the Solubility ([6]; pH 7, PBS)?
**A.** Poorly Behaved

**Q.** And the “TETCHO: Counterscreen % Effect” value ([11]; 0% FBS 4Hr)?
**A.** 32.8%

**Q.** What about the EC50 ([11]; 0% FBS 4Hr) of the same compound?
**A.** > 50.6 µM
